# Assay results from patent US6669951B2, “Compositions and methods for enhancing drug delivery across and into epithelial tissues” (CellGate, Inc., priority 1999, dated 2003).
# Like-named read-outs stand apart in the source and are kept apart here.
# What was measured:
# [1] = system: IL-2 secretion by Jurkat cells; assay: Inhibition of IL-2 secretion, PMA/ionomycin stimulated; format: cell-based, human
# Description: T cells subsequently were stimulated to produce IL-2 by addition of 10 ng/ml PMA (Sigma, St. Louis, Mo.) and 1 μM ionomycin (CalBiochem, San Diego, Calif.). Cultures were incubated overnight at 37° C. and supernatants were collected and IL-2 was measured using a fluorescent ELISA. Briefly, plates were coated with 4 μg/ml anti-human IL-2 antibody (BD Pharmingen, San Diego, Calif.), blocked with PBS containing 10% FBS for 1 hour at room temperature, washed, and supernatants added and incubated for 1 hour. Media was removed and biotinylated anti-human IL-2 (1.6 μg/ml), was added for one hour. The plates were washed, and then europium labeled streptavidin (0.04 ng/ml) was added for one hour. After another wash, enhancement solution was added and the resulting fluorescence was measured using a Wallac plate reader (Wallac, Turku, Finland).
# See R. Wiskocil, et al., J Immunol 134, 1599-603 (1985).
# [2] = Half-life / release of conjugate in buffer; format: physicochemical; settings: for half-life: buffer
# [3] = system: ear inflammation in Balb/c mice; assay: Murine contact dermatitis (DNFB), ear inflammation; format: in vivo, mouse
# Description: Balb/c (6-7 weeks) mice were painted on the abdomen with 100 μl of 0.7% DNFB in acetone olive oil (95:5). Three days later both ears of the animals were restimulated with 0.5% DNFB in acetone. […] Ear inflammation was measured 24 hours after restimulation using a spring loaded caliper. The percent reduction of inflammation was calculated using the following formula […], where t=thickness of the treated ear, n=the thickness of a normal untreated ear, and u=thickness of an inflamed ear without any treatment. N=20 animals in each group.
# [4] = cited from earlier work
# [5] = system: squamous epithelia of the oral cavity; assay: Penetration into squamous epithelia of the oral cavity; format: in vivo, mouse; settings: fifteen minutes
# From the text: To determine whether CellGate transporters could enter the squamous epithelia of the oral cavity, mice were anesthetized with Nembutal, their heads tipped to one side and solutions of the biotinylated peptides were placed in their mouths. After fifteen minutes the liquid was removed by pipette.
# The capacity of the transporters to enter the squamous epithelial layers of the oral cavity was examined. A mouse was anesthetized, its head was tipped so that a solution of biotinylated r9 could be administered. The animal was kept in this position for fifteen minutes, at which time it was sacrificed, and the tongue and cheek were dissected, frozen, sectioned, stained with streptavidin-fluorescein, and counterstained with propidium iodide.
# [6] = system: epithelia of the gastrointestinal tract; assay: Gastrointestinal absorption protocol (histology); format: in vivo, mouse
# Description: Experiments were performed on 8- to 10-week-old female Swiss Webster mice purchased from Taconic (Germantown, N.Y.). Mice were anesthetized with Nembutal and a midline incision was made along the abdomen. Intestines were measured, tied off at both ends of the desired section with sutures, and biotinylated peptides were injected into the lumen (approximately 100λ/inch). After a fifteen minute incubation, the tissue was removed and the lumen was gently washed with PBS.
# Immediately following incubation with biotinylated peptides, the anesthetized rodents were sacrificed by cervical dislocation and the tied off sections of the GI tract were removed. The lumens of the various sections were filled with OCT using a plastic tipped syringe, immersed in OCT filled boats, and snap frozen in a 2-methyl-butane/dry ice solution. Frozen sections were allowed to warm slightly and 2 mm thick sagital cuts were made using a steel razor blade. The cuts were placed into OCT molds and snap frozen in a 2-methyl-butane/dry ice solution. Sections (5 μm) were cut on the cryostat, fixed in acetone at 4° C. for 10 minute, and allowed to air dry. After rehydration in PBS for 5 minutes, sections were blocked with normal horse serum, washed, incubated with streptavidin-FITC (20 μg/ml) for 30 minutes, washed, and mounted with mounting medium containing propidium iodide (PI).
# After fifteen minutes of exposure, the relevant section of tissue was dissected, frozen, sectioned, and stained with Streptavidin fluorescein to define the location of the biotinylated peptide, and propidium iodide to counterstain all the nuclei in the section.
# [7] = Blood levels after buccal delivery; format: in vivo, rat; settings: 5 mg/kg in Cremophor EL:ethanol 1:1
# From the text: (§1) Clotting was inhibited by transferring the blood to glass tubes containing 100λ of 0.5% EDTA, and the blood was frozen.
# [8] = system: CD3+ T cells in inflamed skin; settings: mouse, in vivo
# [9] = system: human skin grafts on SCID mice; settings: in vivo
# Description: Samples (100 μl) were applied as a liquid within excipient and prevented from dispersing by a Vaseline™ barrier and allowed to penetrate for fifteen minutes. At the end of this period animal was sacrificed, the relevant section of skin was excised, embedded in mounting medium (OCT) and frozen. […] Slides were analyzed by fluorescent microscopy.
# skin of nude mice = assay: Penetration of Cu-DTPA complexes into skin of nude mice; format: in vivo, mouse; settings: 1 μM to 1 mM, abdominal region, 15, 30, 45 minutes
# From the text: As controls, an equimolar amount of the Cu-DTPA complex was spotted onto the abdominal region.
# [10] = Drug blood levels after intracolonic injection (LC MS MS); format: in vivo, Wistar rats; settings: intracolonic in PBS
# Description: Wistar rats, females of approximately 200-300 g (Simonsen, Gilroy, Calif.), were anesthetized, their abdomens were shaved, midline incisions were made, and a one-half inch section of the ascending colon in each animal was tied off with sutures. Taxol and cyclosporin (5 mg/kg) were injected as solutions in a 1:1 v/v Cremophor EL:ethanol mixture, whereas equivalent molar amounts of the r7 conjugates were injected in PBS. In all cases, the volume injected was approximately 500λ. The colon was placed back into the cavity, and the incision was closed using sutures.
# as §1
# Either taxol or cyclosporin was extracted from the whole blood using a modification of literature procedures. Briefly, whole blood (100λ) was transferred to a screw capped glass tube containing five mls of diethyl ether. The sample was vortexed vigorously for two minutes, centrifuged, and frozen in dry ice/methanol. The ethereal layer was transferred to another glass tube and the ether was evaporated. […] Samples were placed into a Perkin-Elmer series 200 autosampler and sequencially injected onto a C18 reverse column at 70° C. connected to a Shimadzu HPLC system, eluted with 70% methanol, 30% aqueous ammonium formate buffer, and the effluent was analyzed on a PE Sciex API 3000 tandem mass spectrometer.
molecule,measurement,setting,value
C/C=C/C[C@@H](C)[C@@H](OC(=O)CN(Cc1ccccc1)C(=O)CNCC(=O)N[C@@H](CCCNC(=N)N)C(=O)N[C@@H](CCCNC(=N)N)C(=O)N[C@@H](CCCNC(=N)N)C(=O)N[C@@H](CCCNC(=N)N)C(=O)N[C@@H](CCCNC(=N)N)C(=O)N[C@@H](CCCNC(=N)N)C(=O)N[C@@H](CCCNC(=N)N)C(N)=O)[C@H]1C(=O)N[C@@H](CC)C(=O)N(C)CC(=O)N(C)[C@@H](CC(C)C)C(=O)N[C@@H](C(C)C)C(=O)N(C)[C@@H](CC(C)C)C(=O)N[C@@H](C)C(=O)N[C@H](C)C(=O)N(C)[C@@H](CC(C)C)C(=O)N(C)[C@@H](CC(C)C)C(=O)N(C)[C@@H](C(C)C)C(=O)N1C [releasable R7 CsA],inhibition of IL-2 secretion,[1]; added 12 hours prior to PMA/ionomycin,dose dependent inhibition was observed
same,EC50 relative to CsA dissolved in alcohol,[1]; added at the same time,approximately two
same,pH dependent stability,[2]; absence of serum,"stable at acidic pH, but labile at physiological pH in the absence of serum"
same,half-life,"[2]; PBS pH 7.4 (37° C. where stated), read-out: half-life",1.5 h
same,reduction in ear inflammation,[3]; 0.01% topical,40.9%±3.3
same,reduction in ear inflammation,[3]; 0.1% topical,64.8%±4.0
same,reduction in inflammation in the untreated ear,[3]; 1%,No reduction in inflammation was seen in the untreated ear
same,reduction in ear inflammation,"[3]; 1% topical, 1, 5 and 20 h after restimulation, measured 24 hours",73.9%±4.0
CC(=O)O[C@@]12CO[C@@H]1C[C@H](O)[C@@]1(C)C(=O)[C@H](O)C3=C(C)[C@@H](OC(=O)[C@H](O)[C@@H](NC(=O)OC(C)(C)C)c4ccccc4)C[C@@](O)([C@@H](OC(=O)c4ccccc4)[C@H]21)C3(C)C [taxotere],water solubility,[4],6 to 7 µg/mL
N=C(N)NCCC[C@@H](NC(=O)[C@@H](CCCNC(=N)N)NC(=O)[C@@H](CCCNC(=N)N)NC(=O)[C@@H](CCCNC(=N)N)NC(=O)[C@@H](CCCNC(=N)N)NC(=O)[C@@H](CCCNC(=N)N)NC(=O)[C@@H](CCCNC(=N)N)NC(=O)[C@@H](CCCNC(=N)N)NC(=O)[C@@H](CCCNC(=N)N)NC(=O)CCCCCNC(=O)CCCC[C@@H]1SC[C@@H]2NC(=O)N[C@@H]21)C(N)=O [bio aca r9 CONH2],penetration into cheek and tongue,[5],quickly and efficiently penetrated multiple layers of the epithelia
same,staining of duodenum,"[6]; 100 μM injected into lumen, fifteen minutes",no detectable staining over background was observed
same,staining of ascending and transverse colon,"[6]; 100 μM, fifteen minutes","stained all surface areas of the villi, and penetrated several cell layers"
same,staining of ileum,"[6]; 100 μM, fifteen minutes",first sign of uniform staining
same,staining of jejunum,"[6]; 100 μM, fifteen minutes",Poor staining
same,uptake along the GI tract,"[6]; mouse, in vivo",uptake increasing with distance from the gastric pylorus
"CC(=O)O[C@H]1C(=O)[C@@]2(C)[C@H]([C@H](OC(=O)c3ccccc3)[C@]3(O)C[C@H](OC(=O)[C@H](O)[C@@H](NC(=O)c4ccccc4)c4ccccc4)C(C)=C1C3(C)C)[C@]1(OC(C)=O)CO[C@@H]1C[C@@H]2O [taxol, paclitaxel]",appearance of taxol in blood after buccal administration,[7],appeared in the blood stream by the first time point
"C/C=C/C[C@@H](C)[C@@H](OC(=O)CSC[C@H](NC(=O)[C@@H](CCCNC(=N)N)NC(=O)[C@@H](CCCNC(=N)N)NC(=O)[C@@H](CCCNC(=N)N)NC(=O)[C@@H](CCCNC(=N)N)NC(=O)[C@@H](CCCNC(=N)N)NC(=O)[C@@H](CCCNC(=N)N)NC(=O)[C@@H](CCCNC(=N)N)NC(=O)CCCCCNC(=O)CCCC[C@@H]1SC[C@@H]2NC(=O)N[C@@H]21)C(N)=O)[C@H]1C(=O)N[C@@H](CC)C(=O)N(C)CC(=O)N(C)[C@@H](CC(C)C)C(=O)N[C@@H](C(C)C)C(=O)N(C)[C@@H](CC(C)C)C(=O)N[C@@H](C)C(=O)N[C@H](C)C(=O)N(C)[C@@H](CC(C)C)C(=O)N(C)[C@@H](CC(C)C)C(=O)N(C)[C@@H](C(C)C)C(=O)N1C [biotin r7 CsA, B-aca-r7-Cys-O-acyl-Cyclosporin A]",presence in infiltrating T cells of inflamed skin,[8],found in all CD3[+] T cells in the tissue
same,penetration into human skin,[9],penetrated human epidermis and dermis
Copper-diethylenetriaminepentaacetic Acid Complex [Cu-DTPA],colour on skin after wiping off,skin of nude mice,not where the Cu-DTPA alone was spotted
CC(=O)N[C@@H](CSCC(=O)O[C@@H](C(=O)O[C@H]1C[C@@]2(O)[C@@H](OC(=O)c3ccccc3)[C@@H]3[C@]4(OC(C)=O)CO[C@@H]4C[C@H](O)[C@@]3(C)C(=O)[C@H](OC(C)=O)C(=C1C)C2(C)C)[C@@H](NC(=O)c1ccccc1)c1ccccc1)C(=O)N[C@H](CCCNC(=N)N)C(=O)N[C@H](CCCNC(=N)N)C(=O)N[C@H](CCCNC(=N)N)C(=O)N[C@H](CCCNC(=N)N)C(=O)N[C@H](CCCNC(=N)N)C(=O)N[C@H](CCCNC(=N)N)C(=O)N[C@H](CCCNC(=N)N)C(N)=O [compound 14],half-life,"[2]; PBS, pH 7.4 at 37° C., read-out: half life (converted)",5 h
same,blood levels of taxol,[10],did not result in significant blood levels of taxol within five hours
